Marks after values point to notes of the source that are not given here.
Assays:
Format in all cases: in vivo, human
TIMP-1, PIII-NP = assay: Serum fibrosis markers (TIMP-1, PIII-NP), proof of concept study in subjects with NASH; settings: for PIII-NP, median relative (%) change from BL / TIMP-1, median relative (%) change from BL: serum, W12, orally QD for 12 weeks
Procedure: (§1) 70 subjects with NASH diagnosed by a hepatic proton density fat fraction (PDFF) ≥10% and liver stiffness ≥2.88 kPa by MRE, or liver biopsy consistent with NASH and stage 2-3 fibrosis were enrolled. Successive cohorts received monotherapy with Formula (II) 18 mg, Formula (VII) 20 mg, or Formula (V) 30 mg (n=10/cohort), or combination therapy with Formula (II)+Formula (VII) (18/20 mg) or Formula (II)+Formula (V) (18/30 mg) (n=20/cohort) orally QD for 12 weeks. Centrally-read PDFF and MRE, and serum fibrosis markers were measured at baseline (BL), W4 and W12. Deuterated water was administered to measure fractional synthesis of lipids (de novo lipogenesis [DNL]) and fibrosis-related markers (data are pending).

[1] = Safety (AEs), proof of concept study in subjects with NASH; settings: over 12 weeks, orally QD
Procedure: as §1

liver stiffness = assay: Liver stiffness by MRE, proof of concept study in subjects with NASH; settings: W12, orally QD for 12 weeks
Procedure: as §1

ALT, GGT = assay: Liver biochemistry (ALT, GGT), proof of concept study in subjects with NASH; settings: for ALT, median relative (%) change from BL / GGT, median relative (%) change from BL: W12, orally QD for 12 weeks
Procedure: as §1

[2] = test system: hepatic proton density fat fraction (PDFF); assay: Hepatic fat by MRI-PDFF, proof of concept study in subjects with NASH; settings: for MRI-PDFF, median relative (%) change from BL / ≥30% reduction in MRI-PDFF, % of subjects: W12, orally QD for 12 weeks; for PDFF compared with BL (in words): 12 weeks
Procedure: as §1

Structure (SMILES)	PIII-NP, median relative (%) change from BL (TIMP-1, PIII-NP) [%]	TIMP-1, median relative (%) change from BL (TIMP-1, PIII-NP)	Grade 2 or higher AE, % of subjects [1] [%]	MRE, median relative (%) change from BL (liver stiffness) [%]	ALT, median relative (%) change from BL (ALT, GGT) [%]	GGT, median relative (%) change from BL (ALT, GGT)	MRI-PDFF, median relative (%) change from BL [2]	≥30% reduction in MRI-PDFF, % of subjects [2] [%]	ALT compared with BL (in words) (ALT, GGT; 12 weeks)	GGT compared with BL (in words) (ALT, GGT; 12 weeks)	PDFF compared with BL (in words) [2]	PIII-NP compared with BL (in words) (TIMP-1, PIII-NP; 12 weeks)	TIMP-1 compared with BL (in words) (TIMP-1, PIII-NP; 12 weeks)
Cc1cc(F)c(C(=O)Nc2cccc(-c3nncn3C(C)C)n2)cc1-n1cnc(C2CC2)c1 [Formula (II)]	−8.7	2.6%	40	−8.6	−1.2	−4.4%	7.1%	10					
O=C(O)c1ccnc(N2CC(O)(c3ccc(OCc4c(-c5c(Cl)cccc5Cl)noc4C4CC4)cc3Cl)C2)c1 [Formula (V)]	8.8	6.6* %	40	−8.3	−29.7	−19.3* %	−15.6* %	0	reduced	reduced	reduced		
Cc1cc(F)c(C(=O)Nc2cccc(-c3nncn3[C@@H](C)CF)n2)cc1-n1cnc(C2CC2)c1 [Formula (VII)]	−11.9	−11.6* %	40	−8.9	−33.5	−1.6%	−42.7* %	70	non-significant reductions		significant improvements	non-significant reductions	significant improvements

— patent publication US20180333401A1, “METHODS OF TREATING LIVER DISEASE” (Gilead Sciences, Inc., priority 2017, published 2018)
